Experimental findings from patent US20240287065A1, “COMPOUND AS CDK KINASE INHIBITOR AND USE THEREOF” (TYK MEDICINES (ZHENGZHOU) , INC., priority 2021, published 2024) are described below.

Each structure is given as a SMILES string. pIC50: −log10 of the molar value. Where only a bound is given, the exact number is not on record here.

Experiment [1] has as its system HCC1806 cells. Kind of experiment: Cell proliferation inhibition assay (MTT, 7 days). The settings on record: Homo sapiens, HCC1806, 168 h, HCC1086 [sic], 7 days incubation. In kind it is cell-based. How it is done:
(§1) MCF7, T47D, OVCAR3 and HCC1806 cells were inoculated in 96-well plates at 3000, 3000, 2500, and 2000 cells/well, respectively, and cultured overnight at 37° C., 5% C02 incubator.
(§2) 1. […] Then 2.5 μl of the stock solution was dissolved in 497.5 μl of DMSO-free medium, and then a 3-fold serial gradient dilution was performed with 0.1% DMSO medium for a total of 9 concentrations, and the concentrations of the compounds after dilution were as follows: • 10000 nM, 3333.33 nM, 1111.11 nM, 370.34 nM, 123.45 nM, 41.15 nM, 13.72 nM, 4.57 nM, and 1.52 nM. • b) After fully mixing, 20 μL of compound solutions were added into cell culture plates containing 80 μL of cells respectively, with 4 replicate wells for each concentration. • c) The cells were transferred to an incubator and incubated for 7 days, and exchanged with fresh culture medium containing the same concentration of compounds when incubated to day 4. 2. MTT assay • a) The cell culture plate was taken out and 10 μL of 5 mg/ml MTT was added to the hood. • b) The cell culture plate was put back into the incubator and continued to incubate for 3 hours. • c) The cell culture plate was taken out to remove the culture medium, and 100 μL of isopropanol (0.4 mMHCl, 0.4% NP40) was added to the plate, and the plate was shaken on a shaker at room temperature for 30 minutes and read at 570 nm. 3. Data analysis
(§3) The survival rate (% Cell Survival) was calculated using the following equation:
(§4) % Cell Survival=100%×(OD_Sample−OD_LCave)/(OD_HC−OD_LCave) • OD_HC: 0.1‰ cell readings of DMSO control • OD_Sample: cell readings of compound addition • OD_LC: readings of blank medium • Analyed by Prizm: Dose-response-Inhibition Log(inhibitor) vs response (three parameters for the best fit)
(§5) IC50 (nM) values were calculated by concentration-response curve fitting.

Experiment [2] concerns MCF7 cells. Kind of experiment: Cell proliferation inhibition assay (MTT, 7 days). It counts as cell-based. Conditions: Homo sapiens, 168 h, 7 days incubation. Here is the method: as §1, §2, §3, §4, §5
Experiment [3] relates to OVCAR3 cells. Kind of experiment: Cell proliferation inhibition assay (MTT, 7 days). In kind it is cell-based. Conditions: Homo sapiens, OVCAR-3, 168 h, 7 days incubation. Here is the method:
as §1, §2, §3, §4, §5

The subject of experiment [4] is T47D cells. Kind of experiment: Cell proliferation inhibition assay (MTT, 7 days). It counts as cell-based. Conditions: Homo sapiens, 168 h, 7 days incubation. How it is done:
as §1, §2, §3, §4, §5

In experiment [5] the target is CDK2/CycE1 (Homo sapiens, UniProt P24941). Kind of experiment: Enzyme activity test. It counts as biochemical. How it is done: (§6) • 1. The test compounds and pabocinib were configured into a […] solution of DMSO; • 2. 20 nL of stock solution was transferred to a 384-well plate using Echo550. DMSO was used as a blank control.
(§7) • 1. according to the following table to prepare 1.3X enzyme solution containing enzyme, substrate and cofactor; • 2. 15 μL of 1.3X enzyme solution was added to each well and the mixture was incubated for 30 min at room temperature; • 3. 5 μL of ATP solution was added to initiate the reaction. The final volume of each well was 20 μL; • 4. After incubation for 150 min at room temperature, 75 μL of termination buffer solution was added to terminate the experiment; • 5. The samples were analyzed using EZ reader.
(§8) The % inhibition was calculated using the following equation
(§9) The one treated with DMSO is the positive control (PC)
(§10) The one without enzyme is the negative control (NC)
(§11) % Inhibition=100-100*((CRPC−CRsample)/(CRPC−CRNC))

For experiment [6], the target named is CDK4/CycD3 (Homo sapiens, UniProt P11802). Kind of experiment: Enzyme activity test. In kind it is biochemical. Here is the method: as §6, §7, §8, §9, §10, §11
Chain of CDK4/CycD3 (P11802 whole entry, species assumed): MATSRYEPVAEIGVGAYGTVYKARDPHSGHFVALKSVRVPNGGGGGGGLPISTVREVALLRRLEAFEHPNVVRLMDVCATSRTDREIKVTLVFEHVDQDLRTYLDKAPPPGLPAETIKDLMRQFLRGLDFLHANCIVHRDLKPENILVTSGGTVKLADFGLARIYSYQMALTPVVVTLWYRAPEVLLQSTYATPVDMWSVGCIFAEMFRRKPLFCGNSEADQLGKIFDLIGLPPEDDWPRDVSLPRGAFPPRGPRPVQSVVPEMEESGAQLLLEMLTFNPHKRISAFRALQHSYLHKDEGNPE
Chain of CDK4/CycD3 (P30281 whole entry partner, species assumed): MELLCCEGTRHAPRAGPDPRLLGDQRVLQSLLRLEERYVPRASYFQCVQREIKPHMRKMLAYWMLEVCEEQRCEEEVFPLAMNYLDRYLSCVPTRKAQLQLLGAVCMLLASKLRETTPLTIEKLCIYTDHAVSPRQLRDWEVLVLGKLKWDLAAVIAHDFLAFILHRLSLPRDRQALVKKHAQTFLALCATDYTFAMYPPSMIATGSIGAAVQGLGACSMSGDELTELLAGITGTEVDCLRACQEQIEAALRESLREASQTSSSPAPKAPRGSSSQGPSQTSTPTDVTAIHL

Regarding `C[C@@]1(O)CCC[C@H]1n1c(=O)c(OC(F)F)cc2cnc(NC3CCN(S(=O)(=O)c4cccc(C(F)(F)F)c4)CC3)nc21` [Example 20], the IC50 is 200 to 51000 nM in experiment [1], 200 to 51000 nM in experiment [2], 50 to 5200 nM in experiment [3] and 50 to 5200 nM in experiment [4].

On to `C[C@@]1(O)CCC[C@H]1n1c(=O)c(OC(F)F)cc2cnc(NC3CCN(S(=O)(=O)c4cc(F)c(F)cc4F)CC3)nc21` [Example 21], for which the IC50 lay in the range of 200 to 51000 nM in experiment [1], 200 to 51000 nM in experiment [2], 50 to 5200 nM in experiment [3] and 50 to 5200 nM in experiment [4].

As for `CCCS(=O)(=O)N1CCC(Nc2ncc3cc(OC(F)F)c(=O)n([C@@H]4CCC[C@@]4(C)O)c3n2)CC1` [Example 30], the 50% inhibitory concentration (IC50) in experiment [1], in experiment [2], in experiment [3] and in experiment [4] was 50 to 5200 nM each time.

Consider `[2H]C([2H])([2H])Oc1ccc(S(=O)(=O)N2CCC(Nc3ncc4cc(OC(F)F)c(=O)n([C@@H]5CCC[C@@]5(C)O)c4n3)CC2)cc1` [Example 31], for which the IC50 in experiment [1], in experiment [2], in experiment [3] and in experiment [4] was no more than 50 nM throughout. The pIC50 in experiment [5] and in experiment [6] was greater than 8.00 in each case.

As for `C[C@@]1(O)CCC[C@H]1n1c(=O)c(OC(F)F)cc2cnc(NC3CCN(S(=O)(=O)CCC#N)CC3)nc21` [Example 33], the IC50 is 200 to 51000 nM in experiment [1], 50 to 5200 nM in experiment [2], 50 to 5200 nM in experiment [3] and 50 to 5200 nM in experiment [4]. Moreover, the pIC50 in experiment [5] is greater than 8.00.

Turning to `CCOc1ccc(S(=O)(=O)N2CCC(Nc3ncc4cc(OC(F)F)c(=O)n([C@@H]5CCC[C@@]5(C)O)c4n3)CC2)cc1` [Example 34], the IC50 in experiment [1], in experiment [2], in experiment [3] and in experiment [4] was no more than 50 nM in each case.

In the case of `COc1ccc(S(=O)(=O)N2CCC(Nc3ncc4cc(OC(F)F)c(=O)n([C@@H]5CCC[C@@]5(C)O)c4n3)CC2)cn1` [Example 36], the IC50 in experiment [1], in experiment [2], in experiment [3] and in experiment [4] was no more than 50 nM each time. Besides, the pIC50 in experiment [5] and in experiment [6] was greater than 8.00 in each case.

With `COc1ncccc1S(=O)(=O)N1CCC(Nc2ncc3cc(OC(F)F)c(=O)n([C@@H]4CCC[C@@]4(C)O)c3n2)CC1` [Example 37], the IC50 in experiment [1], in experiment [3] and in experiment [4] was no more than 50 nM throughout. Moreover, the pIC50 in experiment [5] and in experiment [6] was greater than 8.00 throughout.

As to `C[C@@]1(O)CCC[C@H]1n1c(=O)c(OC(F)F)cc2cnc(NC3CCN(S(=O)(=O)CC#N)CC3)nc21` [Example 38], the figures for the IC50 in experiment [1] and in experiment [2] were 50 to 5200 nM and no more than 50 nM, respectively.

As for `CCn1cc(S(=O)(=O)N2CCC(Nc3ncc4cc(OC(F)F)c(=O)n([C@@H]5CCC[C@@]5(C)O)c4n3)CC2)cn1` [Example 39], the IC50 in experiment [1] and in experiment [2] was no more than 50 nM each time.

As for `C[C@@]1(O)CCC[C@H]1n1c(=O)c(OC(F)F)cc2cnc(NC3CCN(S(=O)(=O)CCC(F)(F)F)CC3)nc21` [Example 40], the IC50 in experiment [1] is 50 to 5200 nM; in experiment [3], no more than 50 nM; in experiment [4] it was 50 to 5200 nM. Further, the negative-log IC50 (pIC50) in experiment [5] and in experiment [6] was greater than 8.00 each time.

Take `C[C@@]1(O)CCC[C@H]1n1c(=O)c(OC(F)F)cc2cnc(NC3CCN(S(=O)(=O)C4CCC4)CC3)nc21` [Example 42]: the IC50 in experiment [1] was 50 to 5200 nM; in experiment [2], no more than 50 nM; in experiment [3], no more than 50 nM; in experiment [4], no more than 50 nM. Besides, the pIC50 in experiment [5] and in experiment [6] was greater than 8.00 throughout.

`CCS(=O)(=O)N1CCC(Nc2ncc3cc(OC(F)F)c(=O)n([C@@H]4CCC[C@@]4(C)O)c3n2)CC1` [Example 44]: the IC50 in experiment [1] is 50 to 5200 nM; in experiment [2], no more than 50 nM; in experiment [3], no more than 50 nM; in experiment [4] it was no more than 50 nM. The pIC50 in experiment [5] and in experiment [6] was greater than 8.00 each time.

`C[C@@]1(O)CCC[C@H]1n1c(=O)c(OC(F)F)cc2cnc(N[C@@H]3CCOC[C@H]3O)nc21` [Example 45]: the pIC50 in experiment [5] and in experiment [6] was 7.00 to 8.00 in each case.

As to `C[C@@]1(O)CCC[C@H]1n1c(=O)c(OC(F)F)cc2cnc(NC3CCN(S(=O)(=O)C4CC(F)(F)C4)CC3)nc21` [Example 46], the IC50 is 50 to 5200 nM in experiment [1], no more than 50 nM in experiment [2], no more than 50 nM in experiment [3] and no more than 50 nM in experiment [4]. In addition, the pIC50 in experiment [5] and in experiment [6] was greater than 8.00 in each case.

`C[C@@]1(O)CCC[C@H]1n1c(=O)c(OC(F)F)cc2cnc(NC3CCN(S(=O)(=O)C4CCCCC4)CC3)nc21` [Example 49]: the IC50 in experiment [1] lay within 200 to 51000 nM; in experiment [3], 50 to 5200 nM; in experiment [4] it was 50 to 5200 nM.

With `C[C@@]1(O)CCC[C@H]1n1c(=O)c(OC(F)F)cc2cnc(NC3CCN(S(=O)(=O)C4CCC(=O)CC4)CC3)nc21` [Example 53], the IC50 in experiment [1] was 200 to 51000 nM; in experiment [2], 200 to 51000 nM; in experiment [3] it was no more than 50 nM; in experiment [4], 50 to 5200 nM.

In the case of `C[C@@]1(O)CCC[C@H]1n1c(=O)c(OC(F)F)cc2cnc(NC3CCN(S(=O)(=O)C4CCC(F)(F)CC4)CC3)nc21` [Example 54], the half-inhibitory concentration (IC50) in experiment [1] was 200 to 51000 nM; in experiment [3], no more than 50 nM; in experiment [4] it was 50 to 5200 nM. Also, the pIC50 in experiment [5] was greater than 8.00; in experiment [6], 7.00 to 8.00.

Consider `C[C@@]1(O)CCC[C@H]1n1c(=O)c(OC(F)F)cc2cnc(NC3CCN(S(=O)(=O)C4CCC(F)CC4)CC3)nc21` (stereo partly shown) [Example 55], for which the IC50 in experiment [1] is 50 to 5200 nM; in experiment [2] it was no more than 50 nM; in experiment [3] it was 50 to 5200 nM; in experiment [4], no more than 50 nM.

For the compound `C[C@@]1(O)CCC[C@H]1n1c(=O)c(OC(F)F)cc2cnc(NC3CCN(S(=O)(=O)C4CCC(O)CC4)CC3)nc21` (stereo partly shown) [Example 56], the half-maximal inhibitory concentration (IC50) in experiment [1] was 200 to 51000 nM; in experiment [2], 50 to 5200 nM; in experiment [3], 200 to 51000 nM; in experiment [4], 50 to 5200 nM.

As for `C[C@@]1(O)CCC[C@H]1n1c(=O)c(OC(F)F)cc2cnc(NC3CCN(C(=O)C(F)(F)F)CC3)nc21` [Example 57], the IC50 in experiment [1], in experiment [3] and in experiment [4] was 200 to 51000 nM throughout.

As to `C[C@@]1(O)CCC[C@H]1n1c(=O)c(OC(F)F)cc2cnc(NC3CCN(S(=O)(=O)c4ccc(Cl)cc4)CC3)nc21` [Example 58], the IC50 lay within 200 to 51000 nM in experiment [1], 50 to 5200 nM in experiment [2], 50 to 5200 nM in experiment [3] and 50 to 5200 nM in experiment [4].

Turning to `C[C@@]1(O)CCC[C@H]1n1c(=O)c(OC(F)F)cc2cnc(NC3CCN(S(=O)(=O)c4cccc(Cl)c4)CC3)nc21` [Example 59], the half-maximal inhibitory concentration (IC50) in experiment [1], in experiment [2], in experiment [3] and in experiment [4] was 50 to 5200 nM in each case.

On to `CN1CCN(c2ccc(Nc3ncc4cc(OC(F)F)c(=O)n([C@@H]5CCC[C@@]5(C)O)c4n3)nc2)CC1` [Example 60], for which the IC50 in experiment [1], in experiment [2], in experiment [3] and in experiment [4] was no more than 50 nM throughout.

As for `CN1CCN(c2ccc(Nc3ncc4cc(OC(F)F)c(=O)n([C@@H]5CCC[C@@]5(C)O)c4n3)cc2)CC1` [Example 63], the IC50 in experiment [1] was 50 to 5200 nM; in experiment [2] it was no more than 50 nM; in experiment [3], no more than 50 nM; in experiment [4] it was 50 to 5200 nM.
